Test results: PMC8026246 (Bioorganic Chemistry, 2021)

Target: SARS-CoV-2 M^pro (Severe acute respiratory syndrome coronavirus 2, UniProt P0DTD1)
Type: binding
Settings: pH 6.8

CCN(CC)c1ccc2c(-c3ccccc3C(=O)O)c3ccc(=[N+](CC)CC)cc-3oc2c1 [rhodamine B]
Fluorescent labeling of M^pro (gel, UV 365 nm): could not label M^pro
